Literature values as cited in patent US20110105387A1 (priority 2009, published 2011).
Values after ≈ are worked out from the molar mass of the structure shown.

Key:
[1] = literature
[2] = literature; remark: listed apart in the source

Row | water solubility [1] [µg/mL] | time to attain peak concentrations ([2]; after oral dosing) [h] | increase in AUC with a high-fat meal ([2]; high-fat meal, slower rate of absorption) [%] | excreted in urine [2] [%] | SMILES
1 | ~120 (≈ 116 µM) | – | – | – | CO[C@H]1C[C@@H]2CC[C@@H](C)[C@@](O)(O2)C(=O)C(=O)N2CCCC[C@H]2C(=O)O[C@H]([C@H](C)C[C@@H]2CC[C@@H](OC(=O)C(C)(CO)CO)[C@H](OC)C2)CC(=O)[C@H](C)/C=C(\C)[C@@H](O)[C@@H](OC)C(=O)[C@H](C)C[C@H](C)/C=C/C=C/C=C/1C [CCI-779]
2 | – | ≤ 2 | 35 | < 3 | CO[C@H]1C[C@@H]2CC[C@@H](C)[C@@](O)(O2)C(=O)C(=O)N2CCCC[C@H]2C(=O)O[C@H]([C@H](C)C[C@@H]2CC[C@@H](O)[C@H](OC)C2)CC(=O)[C@H](C)/C=C(\C)[C@@H](O)[C@@H](OC)C(=O)[C@H](C)C[C@H](C)/C=C/C=C/C=C/1C [rapamycin]
